Measurements: PubChem BioAssay AID192 (DTP/NCI, 2004)
Values joined by “and” are separate entries in the source; they are usually repeats but may differ in a detail not shown here. Equal values may be shown once. Toxic doses and inconclusive results are not listed. The calls were made as follows: active = survival T/C of 150% or more; inactive = T/C below 125% in these data. Numbered stars: 1 amine (or outer) side, 2 acyl side, 3 side chain; on linkers, the order of the positions; unused ones are H or OH. Bridge positions count the residues as written; N and C are the ends. Square brackets hold non-standard residues; d marks the D form. Peptide text beside a SMILES is read from it. I, II: the chains in the order shown. Actinocin(1to9) = Cc1c2oc3c(C)ccc(C(=O)[*:2])c3nc-2c(C(=O)[*:1])c(N)c1=O; X1 = O=C1CC(C(=O)[*:2])N([*:1])C1; NMeV = CN[CH](C(=O)O)C(C)C; Sar = CNCC(=O)O

Tested on: BDF1 mice, B16 melanoma ip, median survival T/C
Assay: NCI In Vivo Anticancer Drug Screen. Data for tumor model B16 Melanoma (intraperitoneal) in B6D2F1 (BDF1) mice
Details: endpoint: median survival time, higher = longer survival
Method in brief: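 In this screen, activity was judged from survival or tumor size in treated versus vehicle-treated tumor-bearing mice, reported as T/C.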

[1] = dose: 100.0 mg/kg/injection, schedule: Q01DX009 (ip), vehicle: saline with Tween-80
[2] = dose: 200.0 mg/kg/injection, schedule: Q01DX009 (ip), vehicle: saline with Tween-80
[3] = dose: 400.0 mg/kg/injection, schedule: Q01DX009 (ip), vehicle: saline with Tween-80
[4] = dose: 800.0 mg/kg/injection, schedule: Q01DX009 (ip), vehicle: saline with Tween-80
[5] = dose: 100.0 mg/kg/injection, schedule: Q01DX009 (ip), vehicle: Klucel (hydroxypropylcellulose) (HPC)
[6] = dose: 200.0 mg/kg/injection, schedule: Q01DX009 (ip), vehicle: Klucel (hydroxypropylcellulose) (HPC)
[7] = dose: 400.0 mg/kg/injection, schedule: Q01DX009 (ip), vehicle: Klucel (hydroxypropylcellulose) (HPC)
[8] = dose: 6.25 mg/kg/injection, schedule: Q01DX009 (ip), vehicle: saline
[9] = dose: 12.5 mg/kg/injection, schedule: Q01DX009 (ip), vehicle: saline
[10] = dose: 6.25 mg/kg/injection, schedule: Q01DX009 (ip), vehicle: saline with Tween-80
[11] = dose: 12.5 mg/kg/injection, schedule: Q01DX009 (ip), vehicle: saline with Tween-80
[12] = dose: 25.0 mg/kg/injection, schedule: Q01DX009 (ip), vehicle: saline with Tween-80
[13] = dose: 25.0 mg/kg/injection, schedule: Q01DX009 (ip), vehicle: Klucel (hydroxypropylcellulose) (HPC)
[14] = dose: 50.0 mg/kg/injection, schedule: Q01DX009 (ip), vehicle: Klucel (hydroxypropylcellulose) (HPC)
[15] = dose: 25.0 mg/kg/injection, schedule: Q01DX009 (ip), vehicle: saline
[16] = dose: 50.0 mg/kg/injection, schedule: Q01DX009 (ip), vehicle: saline

Measured: T/C

Nc1nc(N)c2nc(CNc3ccc(C(=O)NC(CCC(=O)O)C(=O)O)cc3)cnc2n1 (stereo not drawn)
inactive: dose: 0.03 mg/kg/injection, schedule: Q01DX009 (ip), vehicle: saline with Tween-80 91 % of control | dose: 0.13 mg/kg/injection, schedule: Q01DX009 (ip), vehicle: saline with Tween-80 102 % of control | dose: 0.25 mg/kg/injection, schedule: Q01DX009 (ip), vehicle: saline with Tween-80 91 % of control and 95 % of control

CC(=O)OCC1OC(n2ncc(=O)[nH]c2=O)C(OC(C)=O)C1OC(C)=O (stereo not drawn)
inactive: dose: 50.0 mg/kg/injection, schedule: Q01DX009 (ip), vehicle: saline with Tween-80 106 % of control | [1] 91 % of control | [2] 95 % of control | [3] 102 % of control | [4] 100 % of control

Nc1nccc2c1ncn2C1OC(CO)C(O)C1O (stereo not drawn)
inactive: dose: 4.6 mg/kg/injection, schedule: Q03HX024 (ip), vehicle: saline with Tween-80 90 % of control and 109 % of control | dose: 9.3 mg/kg/injection, schedule: Q03HX024 (ip), vehicle: saline with Tween-80 94 % of control and 117 % of control | dose: 18.7 mg/kg/injection, schedule: Q03HX024 (ip), vehicle: saline with Tween-80 98 % of control | dose: 37.5 mg/kg/injection, schedule: Q03HX024 (ip), vehicle: saline with Tween-80 94 % of control

Nc1nc(N)nc(N)n1
inactive: [5] 100 % of control | [1] 102 % of control | [6] 100 % of control | [2] 102 % of control | [7] 105 % of control | [3] 87 % of control | [4] 90 % of control

CN(C)c1ccc2nc3ccc(=[N+](C)C)cc-3sc2c1
inactive: [8] 86 % of control | [9] 93 % of control

CC(C)(C)CC(C)(C)CC(C)(C)NCCCN
inactive: [10] 105 % of control | [11] 91 % of control | [12] 86 % of control

CNC(=S)NCc1ccc(C(=O)NC(C)C)cc1
inactive: [13] 101 % of control | [14] 99 % of control | [5] 118 % of control | [6] 118 % of control

O=Nc1c(O)ccc2ccccc12
inactive: [13] 90 % of control | [14] 93 % of control

CCNc1nc(NC(C)C)nc(OC)n1
inactive: [10] 113 % of control | [11] 108 % of control | [12] 110 % of control

CC(=O)N(NC(C)C)C(C)C
inactive: [8] 111 % of control | [9] 103 % of control | [15] 99 % of control | [16] 102 % of control

O=C(/C=C/c1ccccc1)CC(O)(C(F)(F)F)C(F)(F)F
inactive: dose: 100.0 mg/kg/injection, schedule: Q04DX003 (sc), vehicle: olive oil, sesame oil, peanut oil 90 % of control | dose: 200.0 mg/kg/injection, schedule: Q04DX003 (sc), vehicle: olive oil, sesame oil, peanut oil 95 % of control | dose: 400.0 mg/kg/injection, schedule: Q04DX003 (sc), vehicle: olive oil, sesame oil, peanut oil 90 % of control

O=C1OCC2C1Cc1cc(O)c(O)cc1C2c1ccc(O)c(O)c1 (stereo not drawn)
inactive: [5] 112 % of control | [6] 94 % of control | [7] 105 % of control

CCCCN(C)/N=N/c1[nH]ncc1C(=O)OCC
inactive: dose: 78.7 mg/kg/injection, schedule: Q01DX009 (ip), vehicle: carboxymethylcellulose (CMC) 109 % of control | dose: 118.0 mg/kg/injection, schedule: Q01DX009 (ip), vehicle: carboxymethylcellulose (CMC) 118 % of control | dose: 177.0 mg/kg/injection, schedule: Q01DX009 (ip), vehicle: carboxymethylcellulose (CMC) 118 % of control | dose: 266.0 mg/kg/injection, schedule: Q01DX009 (ip), vehicle: carboxymethylcellulose (CMC) 109 % of control

C=C(CCC(C(=O)O)C1CCC2(C)C3=C(CCC12C)C1(C)CCC(O)C(C)(C)C1CC3)C(C)C (stereo not drawn)
inactive: dose: 20.0 mg/kg/injection, schedule: Q01DX009 (sc), vehicle: steriod suspending solution 98 % of control | dose: 40.0 mg/kg/injection, schedule: Q01DX009 (sc), vehicle: steriod suspending solution 105 % of control | dose: 80.0 mg/kg/injection, schedule: Q01DX009 (sc), vehicle: steriod suspending solution 101 % of control | dose: 160.0 mg/kg/injection, schedule: Q01DX009 (sc), vehicle: steriod suspending solution 92 % of control | dose: 165.0 mg/kg/injection, schedule: Q01DX009 (sc), vehicle: steriod suspending solution 94 % of control | dose: 250.0 mg/kg/injection, schedule: Q01DX009 (sc), vehicle: steriod suspending solution 102 % of control

CCO/C=C1\SC(=S)N(c2ccccc2OC)C1=O
inactive: dose: 12.5 mg/kg/injection, schedule: Q01DX009 (ip), vehicle: Klucel (hydroxypropylcellulose) (HPC) 109 % of control | [13] 99 % of control and 117 % of control | [14] 107 % of control and 111 % of control | [5] 86 % of control and 107 % of control | [6] 111 % of control

CC(C)[S][Pb]([c]1ccccc1)([c]1ccccc1)[c]1ccccc1
inactive: dose: 0.3 mg/kg/injection, schedule: Q01DX009 (ip), vehicle: gum acacia 97 % of control | dose: 0.6 mg/kg/injection, schedule: Q01DX009 (ip), vehicle: gum acacia 91 % of control | dose: 1.25 mg/kg/injection, schedule: Q01DX009 (ip), vehicle: gum acacia 89 % of control

COc1cc2cc(c1Cl)N(C)C(=O)CC(OC(=O)C(C)N(C)C(=O)C(C)C)C1(C)OC1C(C)C1CC(O)(NC(=O)O1)C(OC)/C=C/C=C(C)C2 (stereo not drawn)
active: dose: 5.0 micrograms/kg/injection, schedule: Q01DX009 (ip), vehicle: saline + alcohol 171 % of control | dose: 10.0 micrograms/kg/injection, schedule: Q01DX009 (ip), vehicle: saline + alcohol 177 % of control

CC(C)C1(c2ccsc2)NC(=O)NC1=O (stereo not drawn)
inactive: [14] 108 % of control | [5] 122 % of control | [6] 109 % of control

CC(C)OCCCN=C(N)N
inactive: [9] 105 % of control | [15] 106 % of control | [16] 110 % of control

Cc1c2oc3c(C)ccc(C(=O)NC4C(=O)NC(C(C)C)C(=O)N5CCCC5C(=O)N(C)CC(=O)N(C)C(C(C)C)C(=O)OC4C)c3nc-2c(C(=O)NC2C(=O)NC(C(C)C)C(=O)N3CC(=O)CC3C(=O)N(C)CC(=O)N(C)C(C(C)C)C(=O)OC2C)c(N)c1=O (stereo not drawn) (I: TV[X1][Sar][NMeV] / II: TVP[Sar][NMeV]; ester I:1-I:C, II:1-II:C; linker I:N-II:N via Actinocin(1to9); configuration not given here)
inactive: dose: 6.2 micrograms/kg/injection, schedule: Q01DX009 (ip), vehicle: water 123 % of control | dose: 9.4 micrograms/kg/injection, schedule: Q04DX003 (ip), vehicle: water 106 % of control | dose: 18.7 micrograms/kg/injection, schedule: Q04DX003 (ip), vehicle: water 123 % of control | dose: 25.0 micrograms/kg/injection, schedule: Q01DX001 (ip), vehicle: water 123 % of control | dose: 50.0 micrograms/kg/injection, schedule: Q01DX001 (ip), vehicle: water 116 % of control | dose: 100.0 micrograms/kg/injection, schedule: Q01DX001 (ip), vehicle: water 106 % of control

COc1c(O)c2c(c3cc(C(=O)N4CCc5c4c(O)c(OC)c4[nH]c(C(=O)N6CC7CC78C6=CC(=O)c6[nH]cc(C)c68)cc54)[nH]c13)CCN2C(N)=O (stereo not drawn)
active: dose: 10.0 micrograms/kg/injection, schedule: Q01DX009 (ip), vehicle: other 181 % of control

COc1cccc(CNc2ccc(SC)cc2)c1OC
inactive: [5] 100 % of control | [6] 93 % of control | [7] 93 % of control

CC(CN1CCN(C)CC1)CN1c2ccccc2Sc2ccc(C(F)(F)F)cc21 (stereo not drawn)
inactive: dose: 1.56 mg/kg/injection, schedule: Q01DX009 (ip), vehicle: saline 110 % of control | dose: 3.12 mg/kg/injection, schedule: Q01DX009 (ip), vehicle: saline 110 % of control | [8] 123 % of control | [9] 107 % of control
